Laboratory results: paper PMC9230548, “Synthesis and Biological Evaluation of Novel Synthetic Indolone Derivatives as Anti-Tumor Agents Targeting p53-MDM2 and p53-MDMX” (Molecules, 2022)
Like-named read-outs stand apart in the source and are kept apart here.

What was measured:
HCT116 cell line = experiment: MTT assay, HCT116; type: cell-based; conditions: average of three determinations
Description: (§1) Compounds were tested at six concentrations (0.001–100 μM).
(§2) The cells were seeded into a 96-well plate and allowed to attach overnight, after which various concentrations of test compounds or DMSO were added to the culture medium and the cells were incubated for 48 h at 37 °C in a 5% CO2 humidified incubator. Then, 20 μL of 0.5% the fresh MTT solution was added to each well. After incubation for another 4 h, the culture medium was removed and 150 μL of DMSO was added to dissolve the formazan crystals. The absorbance at 540 nm was measured using a microplate reader. The results, expressed as IC50 values, were the average of three determinations and were calculated using nonlinear regression analysis.

A549 cell line = experiment: MTT assay, A549; type: cell-based; conditions: average of three determinations
Description: as §1, §2

MDM2 = MDM2 (Homo sapiens, UniProt Q00987); experiment: fluorescence polarization assay, MDM2 binding
Sequence of MDM2 (Q00987 whole entry): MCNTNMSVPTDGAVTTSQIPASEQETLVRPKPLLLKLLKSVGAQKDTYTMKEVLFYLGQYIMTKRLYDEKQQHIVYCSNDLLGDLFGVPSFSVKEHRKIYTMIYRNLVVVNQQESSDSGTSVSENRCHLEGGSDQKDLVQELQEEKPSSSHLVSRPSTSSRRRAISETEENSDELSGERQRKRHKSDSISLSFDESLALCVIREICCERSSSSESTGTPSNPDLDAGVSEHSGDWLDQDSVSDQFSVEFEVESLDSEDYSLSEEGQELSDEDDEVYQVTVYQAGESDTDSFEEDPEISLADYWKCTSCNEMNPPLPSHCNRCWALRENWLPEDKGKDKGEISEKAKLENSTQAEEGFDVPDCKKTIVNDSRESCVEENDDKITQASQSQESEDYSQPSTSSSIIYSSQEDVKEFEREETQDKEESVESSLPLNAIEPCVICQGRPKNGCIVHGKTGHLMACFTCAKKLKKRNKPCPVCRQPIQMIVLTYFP
Description: (§3) The MDM2 and MDMX binding evaluation for the target compounds was carried out using the fluorescence polarization assay.
(§4) Dose-dependent MDM2 and MDMX binding evaluations were carried out using the fluorescence polarization assay.
(§5) A total of 30 nM preincubated (30 min) MDM2 (or MDMX) and 10 nM PMDM-F peptide in reaction buffer (100 μL, potassium phosphate, 100 mM; bovine gamma globulin, 100 mg/mL; sodium azide, 0.02%) were added into a 96-well plate containing the tested compounds at pH 7.5.

MDMX = target: T1, MDMX (Homo sapiens, UniProt O15151); experiment: fluorescence polarization assay, MDMX binding
T1 sequence (O15151 1-490): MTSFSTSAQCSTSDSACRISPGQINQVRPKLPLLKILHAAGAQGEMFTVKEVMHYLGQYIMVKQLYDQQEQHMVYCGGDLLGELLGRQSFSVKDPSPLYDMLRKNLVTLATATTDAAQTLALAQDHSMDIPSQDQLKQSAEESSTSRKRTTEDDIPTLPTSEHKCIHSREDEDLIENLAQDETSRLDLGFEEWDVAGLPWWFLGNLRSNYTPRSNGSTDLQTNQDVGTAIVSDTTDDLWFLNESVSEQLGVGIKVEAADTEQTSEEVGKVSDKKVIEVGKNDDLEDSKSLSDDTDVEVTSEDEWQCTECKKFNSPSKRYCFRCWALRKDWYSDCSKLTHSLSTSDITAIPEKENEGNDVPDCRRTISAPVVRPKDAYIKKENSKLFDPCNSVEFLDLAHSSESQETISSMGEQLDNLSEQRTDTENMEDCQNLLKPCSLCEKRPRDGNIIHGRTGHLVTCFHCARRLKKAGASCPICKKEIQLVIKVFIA
Description: as §3, §4, §5

MCF7 cell line = experiment: MTT assay, MCF7; type: cell-based; conditions: average of three determinations
Description: as §1, §2

[1] = system: HCT116 cells with wild type p53; experiment: Western blotting of p53, MDM2 and MDMX levels; type: cell-based; conditions: HCT116 cells, 0, 5, 10 and 20 μM, 48 h, Western blot
Description: The dual inhibition of the p53-MDM2 and p53-MDMX interactions is expected to activate p53, increasing its level in the cells with wild-type p53. In addition, p53 activation can also result in an increase in the levels of the MDM2 and MDMX proteins. To verify these predictions, Western blotting was used to assess the effects of compound A13 in the HCT 116 cells. The cells were treated with compound A13 for 48 h. Subsequently, the cells were lysed and protein extracts were analyzed for the levels of p53, MDM2, and MDMX.
The HCT116 cells with wild type p53 were treated with compound A13 (0, 5, 10, and 20 μM) for 48 h. The cells were harvested and lysed with RIPA buffer (Sigma, St. Louis, […], USA) supplemented with a protease inhibitor cocktail (Sigma), followed by centrifugation at 12,000× g for 10 min. The supernatants were heated to 100 °C with loading buffer and the total protein concentrations were determined using a Bio-Rad protein assay. Protein samples were subjected to SDS-PAGE and transferred to a PVDF membrane. The membrane was blocked with 5% non-fat milk, and then incubated with the corresponding primary antibody (MDM2, MDMX, p53, and GAPDH) at 4 °C overnight. After binding with an appropriate secondary antibody conjugated with peroxidase, proteins were visualized using the ECL chemiluminescence system. GAPDH was used as a loading control.

[2] = read-out: Ki (μM) ± SD MDM2, fluorescence polarization, PMDM-F peptide, pH 7.5
[3] = read-out: Ki (μM) ± SD MDMX, fluorescence polarization, PMDM-F peptide, pH 7.5

Compound	IC50 (HCT116 cell line; Homo sapiens, HCT-116, 48 h) [µM]	IC50 (A549 cell line; Homo sapiens, A549, 48 h) [µM]	Ki (MDM2; [2]) [µM]	Ki (MDMX; [3]) [µM]	IC50 (MCF7 cell line; Homo sapiens, MCF7, 48 h) [µM]	melting point [°C]	Ki (MDM2) [µM]	Ki (MDMX) [µM]	IC50 (HCT116 cell line; 48 h) [µM]	IC50 (A549 cell line; 48 h) [µM]	IC50 (MCF7 cell line; 48 h) [µM]	expression of MDM2 [1]	expression of MDMX [1]	level of p53 proteins [1]
O=C1/C(=C/c2cccc(Cl)c2)c2ccccc2N1S(=O)(=O)c1ccc(Cl)cc1 [Compound A14, (E)-3-(3-chlorobenzylidene)-1-((4-chlorophenyl)sulfonyl)indolin-2-one]	15.2 ± 3.14	20.3 ± 2.49	0.082 ± 0.021	18.2 ± 1.39	20.2 ± 2.86	137.5 to 139.6								
O=C1/C(=C/c2cccc(Cl)c2)c2ccccc2N1S(=O)(=O)c1cccc(Cl)c1 [Compound A13, (E)-3-(3-chlorobenzylidene)-1-((3-chlorophenyl)sulfonyl)indolin-2-one]	6.17 ± 0.93	12.5 ± 2.01			11.2 ± 1.95		0.031 ± 0.007	7.24 ± 0.78				induced in a dose-dependent manner	induced in a dose-dependent manner	dose-dependent increase
O=C1/C(=C/c2cccc(Cl)c2)c2ccccc2N1S(=O)(=O)c1ccccc1Cl [Compound A12, (E)-3-(3-chlorobenzylidene)-1-((2-chlorophenyl)sulfonyl)indolin-2-one]	15.4 ± 4.61	17.8 ± 2.19			24.7 ± 2.53	125.1 to 126.3	0.19 ± 0.05	20.8 ± 2.01						
O=C1/C(=C/c2cccc(Cl)c2)c2ccccc2N1S(=O)(=O)c1cccc(Br)c1 [Compound A16]			0.079 ± 0.005	16.2 ± 1.94					21.7 ± 2.59	25.4 ± 3.62	26.5 ± 3.4			
O=C1/C(=C/c2cccc(Cl)c2)c2ccccc2N1S(=O)(=O)c1ccc(Br)cc1 [Compound A17]			0.49 ± 0.15	43.2 ± 4.95					25.5 ± 3.26	34.2 ± 3.39	37.7 ± 3.65			

More lines, main results first:

IC50 (HCT116 cell line; Homo sapiens, HCT-116, 48 h) [µM]	IC50 (A549 cell line; Homo sapiens, A549, 48 h) [µM]	Ki (MDM2; [2]) [µM]	Ki (MDMX; [3]) [µM]	IC50 (MCF7 cell line; Homo sapiens, MCF7, 48 h) [µM]	melting point [°C]	Ki (MDM2) [µM]	Ki (MDMX) [µM]	IC50 (HCT116 cell line; 48 h) [µM]	IC50 (A549 cell line; 48 h) [µM]	IC50 (MCF7 cell line; 48 h) [µM]	Compound	expression of MDM2 [1]	expression of MDMX [1]	level of p53 proteins [1]
17 ± 2.37	26.4 ± 4.05	0.28 ± 0.04	32.2 ± 3.24	27.4 ± 3.37	177.8 to 178.7						O=C1/C(=C/c2cccc(Cl)c2)c2cc(Cl)ccc2N1S(=O)(=O)c1cccc(Cl)c1 [Compound A29, (E)-5-chloro-3-(3-chlorobenzylidene)-1-((3-chlorophenyl)sulfonyl)indolin-2-one]			
8.91 ± 1.35	13.5 ± 2.73			15.7 ± 2.04		0.092 ± 0.007	19.3 ± 2.69				O=C1/C(=C/c2cccc(Cl)c2)c2ccccc2N1S(=O)(=O)c1cccc(C(F)(F)F)c1 [Compound A21, (E)-3-(3-chlorobenzylidene)-1-((3-(trifluoromethyl)phenyl)sulfonyl)indolin-2-one]			
17.5 ± 1.53	20.4 ± 1.98	0.31 ± 0.03	17.3 ± 1.91	27.6 ± 3.81	184.8 to 185.6						O=C1/C(=C/c2ccc(Cl)cc2)c2ccccc2N1S(=O)(=O)c1cccc(Cl)c1 [Compound A27, (E)-3-(4-chlorobenzylidene)-1-((3-chlorophenyl)sulfonyl)indolin-2-one]			
17.9 ± 2.11	22.6 ± 2.93			24.7 ± 3.63		0.17 ± 0.03	17.7 ± 2.16				O=C1/C(=C/c2cccc(Cl)c2)c2ccccc2N1S(=O)(=O)c1ccccc1F [Compound A18, (E)-3-(3-chlorobenzylidene)-1-((2-fluorophenyl)sulfonyl)indolin-2-one]			
16.3 ± 2.73	22.2 ± 2.13			27.2 ± 2.83	141.7 to 143.1	0.23 ± 0.02	29.2 ± 3.51				O=C1/C(=C/c2cccc(Cl)c2)c2ccccc2N1S(=O)(=O)c1ccc(F)cc1 [Compound A20, (E)-3-(3-chlorobenzylidene)-1-((4-fluorophenyl)sulfonyl)indolin-2-one]			
10.2 ± 1.37	16.3 ± 1.82			21 ± 2.58		0.076 ± 0.005	16.9 ± 1.74				O=C1/C(=C/c2cccc(Cl)c2)c2ccccc2N1S(=O)(=O)c1cccc(F)c1 [Compound A19, (E)-3-(3-chlorobenzylidene)-1-((3-fluorophenyl)sulfonyl)indolin-2-one]			
